In patent US20240245791A1, “METHODS AND COMPOSITIONS FOR LOCALIZATION OF GROWTH FACTORS” (Arizona Board of Regents on Behalf of the University of …, priority 2021, published 2024):
Like-named read-outs stand apart in the source and are kept apart here.

Tests used:
[1] = tested on: collagen IV; conditions: vs scrambled peptide control biotin-CBPi-QK; measured using Alexafluor 488 streptavidin
[2] = tested on: collagen IV sites; conditions: unconjugated VEGF; limited to the number of collagen IV sites available; cited from earlier work
[3] = tested on: collagen IV; assay: binding assay to collagen IV of CBP-VEGF vs CBPi-VEGF, ELISA for VEGF121; conditions: vs scrambled peptide control CBPi-VEGF; measured using an ELISA for VEGF121
Procedure: The result is measured using an ELISA for VEGF121.

## biotin-CQDSETRT-KLTWQELYQLKYKGI-COOH (SEQ ID NO: 16) [biotin-CBP-QK]
[1]
  binding to collagen IV: significantly greater than the scrambled control at all concentrations

## VEGF
[2]
  share of VEGF added to a scaffold that will bind: 5%

B1: CBP-VEGF: VEGF121 protein conjugated by click chemistry to collagen binding protein CBP (CQDSETRTFY, SEQ ID NO: 1) (conjugate)
chain: APMAEGGGQNHHEVVKFMDVYQRSYCHPIETLVDIFQEYPDEIEYIFKPSCVPLMRCGGCCNDEGLECVPTEESNITMQIMRIKPHQGQHIGEMSFLQHNKCECRPKKDRARQEKCDKPRR
peptide: CQDSETRTFY
[3]
  binding to collagen IV: significantly greater than the scrambled control at all concentrations
